The values that follow come from patent US7491819B1 (priority 2004, dated 2009).

The experiment deals with T1, HIV-integrase (Human immunodeficiency virus type 1 group M subtype B, UniProt P12497).
T1 construct: Recombinant integrase (0.26 ng) was incubated with the beads
The experiment is described as follows: HIV-Integrase Inhibition Activity (SPA bead strand-transfer assay). The class given is biochemical. Particulars: Table 1; read-out: Activity (HIV-integrase inhibition, IC50 class). A digest of the protocol: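 Biotin-labelled substrate DNA (5 pmole) bound to streptavidin SPA beads, preloaded with recombinant integrase (0.26 ng) for 90 min at 37° C, then washed. Inhibitors and 0.1 fmol P33-labelled target DNA added; reaction stopped with 10 mM EDTA. Integration read as scintillation CPM.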

As a reminder, the IC50 is the midpoint of a concentration-inhibition curve. Consider `CC1(C)OCCn2c1nc(C(=O)NCc1ccc(F)cc1O)c(O)c2=O` [Example 95, Pyrimido[2,1-c][1,4]oxazine-2-carboxamide, N-[(4-fluoro-2-hydroxyphenyl)methyl]-4,6,7,9-tetrahydro-3-hydroxy-9,9-dimethyl-4-oxo-], for which the IC50 was in the range of 2 to 100 nM.

For `CNC(=O)COc1cc(F)ccc1CNC(=O)c1nc2n(c(=O)c1O)CCOC2(C)C` [Example 97, Pyrimido[2,1-c][1,4]oxazine-2-carboxamide, N-[[4-fluoro-2-[2-(methylamino)-2-oxoethoxy]phenyl]methyl]-4,6,7,9-tetrahydro-3-hydroxy-9,9-dimethyl-4-oxo-], the IC50 is 2 to 100 nM.

Take `CN(C)C(=O)COc1cc(F)ccc1CNC(=O)c1nc2n(c(=O)c1O)CCOC2(C)C` [Example 98, Pyrimido[2,1-c][1,4]oxazine-2-carboxamide, N-[[2-[2-(dimethylamino)-2-oxoethoxy]-4-fluorophenyl]methyl]-4,6,7,9-tetrahydro-3-hydroxy-9,9-dimethyl-4-oxo-]: the concentration for half-maximal inhibition (IC50) lay within 2 to 100 nM.

`CSc1cc(F)ccc1CNC(=O)c1nc2n(c(=O)c1O)CCOC2(C)C` [Example 100, Pyrimido[2,1-c][1,4]oxazine-2-carboxamide, N-[[4-fluoro-2-(methylthio)phenyl]methyl]-4,6,7,9-tetrahydro-3-hydroxy-9,9-dimethyl-4-oxo-]: the IC50 was 2 to 100 nM.

As for `CC1(C)OCCn2c1nc(C(=O)NCc1ccc(F)cc1S(C)(=O)=O)c(O)c2=O` [Example 101, Pyrimido[2,1-c][1,4]oxazine-2-carboxamide, N-[[4-fluoro-2-(methylsulfonyl)phenyl]methyl]-4,6,7,9-tetrahydro-3-hydroxy-9,9-dimethyl-4-oxo-], the IC50 fell in the range of 2 to 100 nM.

As for `C[S+]([O-])c1cc(F)ccc1CNC(=O)c1nc2n(c(=O)c1O)CCOC2(C)C` (stereo not drawn) [Example 102, Pyrimido[2,1-c][1,4]oxazine-2-carboxamide, N-[[4-fluoro-2-(methylsulfinyl)phenyl]methyl]-4,6,7,9-tetrahydro-3-hydroxy-9,9-dimethyl-4-oxo], the IC50 lay within 2 to 100 nM.

For `CS(=N)c1cc(F)ccc1CNC(=O)c1nc2n(c(=O)c1O)CCOC2(C)C` (stereo not drawn) [Example 103, Pyrimido[2,1-c][1,4]oxazine-2-carboxamide, N-[[4-fluoro-2-(S-methylsulfinimidoyl)phenyl]methyl]-4,6,7,9-tetrahydro-3-hydroxy-9,9-dimethyl-4-oxo-], the IC50 is 2 to 100 nM.

In the case of `CC1(C)OCCn2c1nc(C(=O)NCc1cccc(C3(C(F)(F)F)N=N3)c1)c(O)c2=O` [Example 105, Pyrimido[2,1-c][1,4]oxazine-2-carboxamide, 4,6,7,9-tetrahydro-3-hydroxy-9,9-dimethyl-4-oxo-N-[[3-[3-(trifluoromethyl)-3H-diazirin-3-yl]-phenyl]methyl]-], the IC50 was in the range of 2 to 100 nM.

On to `Cn1nnc(-c2cc(F)ccc2CNC(=O)c2nc3n(c(=O)c2O)CCOC3(C)C)n1` [Example 106, Pyrimido[2,1-c][1,4]oxazine-2-carboxamide, N-[[4-fluoro-2-(2-methyl-2H-tetrazol-5-yl)phenyl]methyl]-4,6,7,9-tetrahydro-3-hydroxy-9,9-dimethyl-4-oxo-], for which the IC50 lay in the range of 2 to 100 nM.

`Cn1nnnc1-c1cc(F)ccc1CNC(=O)c1nc2n(c(=O)c1O)CCOC2(C)C` [Example 107, Pyrimido[2,1-c][1,4]oxazine-2-carboxamide, N-[[4-fluoro-2-(1-methyl-1H-tetrazol-5-yl)phenyl]methyl]-4,6,7,9-tetrahydro-3-hydroxy-9,9-dimethyl-4-oxo-]: the IC50 lay within 2 to 100 nM.

Consider `CN(C)S(=O)(=O)c1cc(F)ccc1CNC(=O)c1nc2n(c(=O)c1O)CCOC2(C)C` [Example 108, Pyrimido[2,1-c][1,4]oxazine-2-carboxamide, N-[[2-[(dimethylamino)sulfonyl]-4-fluorophenyl]methyl]-4,6,7,9-tetrahydro-3-hydroxy-9,9-dimethyl-4-oxo-], for which the IC50 was in the range of 2 to 100 nM.

In the case of `CNS(=O)(=O)c1cc(F)ccc1CNC(=O)c1nc2n(c(=O)c1O)CCOC2(C)C` [Example 109, Pyrimido[2,1-c][1,4]oxazine-2-carboxamide, N-[[4-fluoro-2-[(methylamino)sulfonyl]phenyl]methyl]-4,6,7,9-tetrahydro-3-hydroxy-9,9-dimethyl-4-oxo-], the IC50 lay within 2 to 100 nM.

`CC1(C)OCCn2c1nc(C(=O)NCc1ccc(F)cc1S(N)(=O)=O)c(O)c2=O` [Example 110, Pyrimido[2,1-c][1,4]oxazine-2-carboxamide, N-[[2-(aminosulfonyl)-4-fluorophenyl]methyl]-4,6,7,9-tetrahydro-3-hydroxy-9,9-dimethyl-4-oxo-]: the IC50 fell in the range of 2 to 100 nM.

`CC1(C)OCCn2c1nc(C(=O)NCc1ccc(F)cc1S(=O)(=O)N1CCC1)c(O)c2=O` [Example 111, Pyrimido[2,1-c][1,4]oxazine-2-carboxamide, N-[[2-(1-azetidinylsulfonyl)-4-fluorophenyl]methyl]-4,6,7,9-tetrahydro-3-hydroxy-9,9-dimethyl-4-oxo-]: the IC50 lay in the range of 2 to 100 nM.

As for `CSc1ccccc1CNC(=O)c1nc2n(c(=O)c1O)CCOC2(C)C` [Example 112, Pyrimido[2,1-c][1,4]oxazine-2-carboxamide, 4,6,7,9-tetrahydro-3-hydroxy-9,9-dimethyl-N-[[2-(methylthio)phenyl]methyl]-4-oxo-], the IC50 lay within 2 to 100 nM.

Regarding `C[S+]([O-])c1ccccc1CNC(=O)c1nc2n(c(=O)c1O)CCOC2(C)C` (stereo not drawn) [Example 113, Pyrimido[2,1-c][1,4]oxazine-2-carboxamide, 4,6,7,9-tetrahydro-3-hydroxy-9,9-dimethyl-N-[[2-(methylsulfinyl)phenyl]methyl]-4-oxo-], the IC50 lay in the range of 2 to 100 nM.

Regarding `CC1(C)OCCn2c1nc(C(=O)NCc1ccccc1S(C)(=O)=O)c(O)c2=O` [Example 114, Pyrimido[2,1-c][1,4]oxazine-2-carboxamide, 4,6,7,9-tetrahydro-3-hydroxy-9,9-dimethyl-N-[[2-(methylsulfonyl)phenyl]methyl]-4-oxo-], the IC50 was in the range of 2 to 100 nM.

`CC1(C)OCCn2c1nc(C(=O)NCc1ccc(F)cc1Nc1nccs1)c(O)c2=O` [Example 115, Pyrimido[2,1-c][1,4]oxazine-2-carboxamide, N-[[4-fluoro-2-(2-thiazolylamino)phenyl]methyl]-4,6,7,9-tetrahydro-3-hydroxy-9,9-dimethyl-4-oxo-]: the IC50 is 2 to 100 nM.

For `Cc1nnc(Nc2cc(F)ccc2CNC(=O)c2nc3n(c(=O)c2O)CCOC3(C)C)s1` [Example 116, Pyrimido[2,1-c][1,4]oxazine-2-carboxamide, N-[[4-fluoro-2-[(5-methyl-1,3,4-thiadiazol-2-yl)amino]phenyl]methyl]-4,6,7,9-tetrahydro-3-hydroxy-9,9-dimethyl-4-oxo-], the IC50 was in the range of 2 to 100 nM.

For `CC1(C)OCCCn2c1nc(C(=O)NCc1ccc(F)cc1-n1cncn1)c(O)c2=O` [Example 117, 6H-Pyrimido[2,1-c][1,4]oxazepine-2-carboxamide, N-[[4-fluoro-2-(1H-1,2,4-triazol-1-yl)phenyl]methyl]-4,7,8,10-tetrahydro-3-hydroxy-10,10-dimethyl-4-oxo-], the IC50 fell in the range of 2 to 100 nM.

Take `CNC(=O)c1cc(F)ccc1CNC(=O)c1nc2n(c(=O)c1O)CCCOC2(C)C` [Example 118, 6H-Pyrimido[2,1-c][1,4]oxazepine-2-carboxamide, N-[[4-fluoro-2-[(methylamino)carbonyl]phenyl]methyl]-4,7,8,10-tetrahydro-3-hydroxy-10,10-dimethyl-4-oxo-]: the IC50 is 2 to 100 nM.
